# According to PMC7307906, “Macrocyclic Modalities Combining Peptide Epitopes and Natural Product Fragments” (Journal of the American Chemical Society, 2020):
# Like-named read-outs stand apart in the source and are kept apart here.
# [1] = the molecule shown is the open-chain precursor, other bond, 34-membered ring, CH(OMe)3/Et3N, then 6/LiBr/Et3N, DMF, THF, resin, 25.0 °C, with chain assembly
# [2] = the molecule shown is the open-chain precursor, other bond, 28-membered ring, CH(OMe)3/Et3N, then 6/LiBr/Et3N, DMF, THF, resin, 25.0 °C, with chain assembly
# [3] = the molecule shown is the open-chain precursor, other bond, 37-membered ring, CH(OMe)3/Et3N, then 6/LiBr/Et3N, DMF, THF, resin, 25.0 °C, with chain assembly
# [4] = the molecule shown is the open-chain precursor, other bond, 31-membered ring, CH(OMe)3/Et3N, then 7/LiBr/Et3N, DMF, THF, resin, 25.0 °C, with chain assembly
# [5] = the molecule shown is the open-chain precursor, other bond, 31-membered ring, CH(OMe)3/Et3N, then 6/LiBr/Et3N, DMF, THF, resin, 25.0 °C, with chain assembly
substance,measurement,setting,value
H-Gly-MePhe-Ala-His-Ala-Ser-Asn-Lys(4-formylbenzoyl)-Gly-resin?,"ring closure, yield after HPLC",[1],3%
H-Gly-MePhe-Arg-Ala-Asn-Lys(4-formylbenzoyl)-Gly-resin?,"ring closure, yield after HPLC",[2],14%
H-Gly-MePhe-Arg-Phe-Phe-Asn-Ala-Lys(4-formylbenzoyl)-Tyr-resin?,"ring closure, yield after HPLC",[1],3%
same,"ring closure, yield after HPLC","the molecule shown is the open-chain precursor, other bond, 34-membered ring, CH(OMe)3/Et3N, then 7/LiBr/Et3N, DMF, THF, resin, 25.0 °C, with chain assembly",2%
H-Gly-MePhe-Arg-Phe-Phe-Asn-Ala-Phe-Lys(4-formylbenzoyl)-Gly-resin?,"ring closure, yield after HPLC",[3],2%
same,"ring closure, yield after HPLC","the molecule shown is the open-chain precursor, other bond, 37-membered ring, CH(OMe)3/Et3N, then 7/LiBr/Et3N, DMF, THF, resin, 25.0 °C, with chain assembly",1%
H-Gly-MePhe-Arg-Phe-Phe-Asn-Ala-Phe-Lys(4-formylbenzoyl)-Tyr-resin?,"ring closure, yield after HPLC",[3],2%
H-Gly-MePhe-Arg-Phe-Phe-Asn-Lys(4-formylbenzoyl)-Gly-resin?,"ring closure, yield after HPLC",[4],6%
H-Gly-MePhe-Arg-Phe-Phe-Asn-Lys(4-formylbenzoyl)-Tyr-resin?,"ring closure, yield after HPLC",[5],3%
H-Gly-MePhe-Arg-dPhe-dPhe-Asn-Ala-Lys(4-formylbenzoyl)-Gly-resin?,"ring closure, yield after HPLC","the molecule shown is the open-chain precursor, other bond, 34-membered ring, CH(OMe)3/Et3N, then 11/LiBr/Et3N, DMF, THF, resin, 25.0 °C, with chain assembly",5%
H-Gly-MePhe-Arg-dPhe-dPhe-Asn-Ala-Lys(4-formylbenzoyl)-Tyr-resin?,"ring closure, yield after HPLC",[1],2%
H-Gly-MePhe-Arg-dPhe-dPhe-Asn-Ala-Phe-Lys(4-formylbenzoyl)-Gly-resin?,"ring closure, yield after HPLC",[3],4%
H-Gly-MePhe-Arg-dPhe-dPhe-Asn-Ala-Phe-Lys(4-formylbenzoyl)-Tyr-resin?,"ring closure, yield after HPLC",[3],2%
same,"ring closure, yield after HPLC","the molecule shown is the open-chain precursor, other bond, 37-membered ring, CH(OMe)3/Et3N, then 11/LiBr/Et3N, DMF, THF, resin, 25.0 °C, with chain assembly",1%
H-Gly-MePhe-Arg-dPhe-dPhe-Asn-Lys(4-formylbenzoyl)-Gly-resin?,"ring closure, yield after HPLC",[5],2%
same,"ring closure, yield after HPLC",[4],1%
same,"ring closure, yield after HPLC","the molecule shown is the open-chain precursor, other bond, 31-membered ring, CH(OMe)3/Et3N, then 8/LiBr/Et3N, DMF, THF, resin, 25.0 °C, with chain assembly",4%
H-Gly-MePhe-Arg-dPhe-dPhe-Asn-Lys(4-formylbenzoyl)-Tyr-resin?,"ring closure, yield after HPLC",[4],3%
H-Gly-MePhe-Asn-Asn-Asn-Lys(4-formylbenzoyl)-Gly-resin?,"ring closure, yield after HPLC",[2],12%
H-Gly-MePhe-Asp-Ile-Asn-Asn-Asn-Lys(4-formylbenzoyl)-Gly-resin,"ring closure, yield after HPLC","the molecule shown is the open-chain precursor, other bond, 34-membered ring, CH(OMe)3/Et3N, then 12/LiBr/Et3N, DMF, THF, resin, 25.0 °C, with chain assembly",3%
H-Gly-MePhe-Asp-Ile-Asn-Asn-Asn-Lys(4-formylbenzoyl)-Gly-resin?,"ring closure, yield after HPLC","the molecule shown is the open-chain precursor, other bond, 34-membered ring, imine formation, then 5-benzylidene-1,3-dimethylbarbiturate (14) cycloaddition (RP-04), resin, 4 steps",11%
H-Gly-MePhe-Asp-Ile-Asn-Asn-Asn-Val-Lys(4-formylbenzoyl)-Gly-resin?,"ring closure, yield after HPLC",[3],5%
H-Gly-MePhe-Glu-Glu-Lys-Asp-Ile-Asn-Asn-Asn-Val-Lys-Lys(4-formylbenzoyl)-Thr-resin?,"ring closure, yield after HPLC","the molecule shown is the open-chain precursor, other bond, 49-membered ring, CH(OMe)3/Et3N, then 6/LiBr/Et3N, DMF, THF, resin, 25.0 °C, with chain assembly",2%
H-Gly-MePhe-Gly-Leu-Gly-Phe-Lys(4-formylbenzoyl)-Phe-resin?,"ring closure, yield after HPLC",[4],5%
same,"ring closure, yield after HPLC","the molecule shown is the open-chain precursor, other bond, 31-membered ring, CH(OMe)3/Et3N, then 11/LiBr/Et3N, DMF, THF, resin, 25.0 °C, with chain assembly",4%
H-Gly-MePhe-Ile-Asn-Asn-Asn-Lys(4-formylbenzoyl)-Gly-resin?,"ring closure, yield after HPLC",[5],3%
H-Gly-MePhe-Leu-Lys-Pro-Ile-Lys(4-formylbenzoyl)-Gly-resin?,"ring closure, yield after HPLC",[5],8%
same,"ring closure, yield after HPLC",[4],5%
same,"ring closure, yield after HPLC","the molecule shown is the open-chain precursor, other bond, 31-membered ring, CH(OMe)3/Et3N, then 13/LiBr/Et3N, DMF, THF, resin, 25.0 °C, with chain assembly",4%
H-Gly-Phe-Asp-Ile-Asn-Asn-Asn-Lys(4-formylbenzoyl)-Gly-resin?,"ring closure, yield after HPLC",[1],2%
H-Gly-Pro-Asp-Ile-Asn-Asn-Asn-Lys(4-formylbenzoyl)-Gly-resin?,"ring closure, yield after HPLC",[1],3%
H-Gly-dMePhe-Asp-Ile-Asn-Asn-Asn-Lys(4-formylbenzoyl)-Gly-resin,"ring closure, yield after HPLC",[1],5%
Y[CRFFNAFC]Y,"ring closure, yield after HPLC","disulfide bond, 26-membered ring, DMSO/AcOH, DMSO/AcOH/H2O, 1.56 mM, 25.0 °C, 3 steps",25%
Y[CRffNAFC]Y,"ring closure, yield after HPLC","disulfide bond, 26-membered ring, DMSO/AcOH, DMSO/AcOH/H2O, 1.55 mM, 25.0 °C, 3 steps",17%
[4-F-Ph-pyrrolidinyl-spirooxindole-NMeFDINNNK]G,"ring closure, yield after HPLC","other bond, Fmoc removal (RP-03), imine cyclization/1,3-dipolar cycloaddition, (E)-4-fluorobenzylidene-indolin-2-one, Cu/BINAP (RP-04), resin, 4 steps",6%
[4-OMePh-pyrrolidinyl-spirooxindole-NMeFDINNNK]G,"ring closure, yield after HPLC","other bond, Fmoc removal (RP-03), imine cyclization/1,3-dipolar cycloaddition, (E)-4-methoxybenzylidene-indolin-2-one (RP-04), resin, 4 steps",3%
"[N-3,4,5-OMePh-fused-di-pyrrolidine-NMeFRffNK]G","ring closure, yield after HPLC","other bond, Fmoc removal (RP-03), imine cyclization/N-(3,4,5-trimethoxyphenyl)maleimide 1,3-dipolar cycloaddition (RP-04), resin, 3 steps",2%
[N-4-OMePh-fused-di-pyrrolidine-NMeFDINNNK]G,"ring closure, yield after HPLC","other bond, Fmoc removal (RP-03), imine cyclization/1,3-dipolar cycloaddition, N-(4-methoxyphenyl)maleimide (RP-04), resin, 4 steps",20%
[N-4-OMePh-fused-di-pyrrolidine-NMeFRffNK]G,"ring closure, yield after HPLC","other bond, Fmoc removal (RP-03), imine cyclization/maleimide 8 1,3-dipolar cycloaddition (RP-04), resin, 3 steps",4%
